# Assay results taken from patent US8193191B2, “Urotensin II receptor antagonists” (Janssen Pharmaceutica N.V., priority 2006, dated 2012).
# Where two headings read alike, the source gives them in different places.
# Key:
# [1] = molecular target: T1, rat GPR14 (U-II receptor) (Rattus norvegicus, UniProt P49684); experiment: Rat UII Calcium Mobilization FLIPR Assay; assay type: cell-based; conditions: average value for the compound tested; read-out: Rat UII FLIPR Average IC50
# T1 construct: expressed in transfected cells
# T1 sequence (P49684 1-386): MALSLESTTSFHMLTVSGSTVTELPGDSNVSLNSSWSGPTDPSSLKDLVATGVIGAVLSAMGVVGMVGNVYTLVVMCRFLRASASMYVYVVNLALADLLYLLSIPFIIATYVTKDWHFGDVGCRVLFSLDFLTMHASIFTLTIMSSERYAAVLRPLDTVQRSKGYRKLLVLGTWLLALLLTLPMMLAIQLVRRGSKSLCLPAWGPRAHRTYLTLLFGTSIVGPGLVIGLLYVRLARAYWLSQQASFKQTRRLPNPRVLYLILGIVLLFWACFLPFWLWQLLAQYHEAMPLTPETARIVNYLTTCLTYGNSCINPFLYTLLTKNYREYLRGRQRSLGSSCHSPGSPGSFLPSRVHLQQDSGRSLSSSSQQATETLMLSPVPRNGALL
# Procedure, shortened: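 CHO cells stably expressing rat U-II receptor, seeded 24 h before assay, were loaded with FLIPR calcium dye in HBSS/20 mM HEPES/0.1% BSA/2.5 mM probenecid, pH 7.4, for 1 h at 37° C. Calcium mobilization then read by FLIPR at 23° C.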
# [2] = molecular target: T2, endogenous human UII receptor (Homo sapiens, UniProt Q9UKP6); experiment: Human Radioligand Binding Assay ((^125I)-U-II binding to human skeletal muscle myoblasts)
# T2 sequence (Q9UKP6 1-389): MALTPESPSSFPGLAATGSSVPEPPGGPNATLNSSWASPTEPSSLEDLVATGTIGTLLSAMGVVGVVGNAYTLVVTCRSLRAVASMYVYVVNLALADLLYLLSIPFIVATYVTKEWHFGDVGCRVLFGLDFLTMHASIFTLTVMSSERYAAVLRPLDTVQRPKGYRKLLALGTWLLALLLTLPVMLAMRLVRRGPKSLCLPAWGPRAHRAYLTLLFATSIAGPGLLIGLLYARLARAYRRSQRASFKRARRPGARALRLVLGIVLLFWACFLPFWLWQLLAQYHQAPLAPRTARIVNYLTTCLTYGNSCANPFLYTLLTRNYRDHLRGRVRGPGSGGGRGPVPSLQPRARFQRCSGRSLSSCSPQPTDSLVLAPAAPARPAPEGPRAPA
# [3] = molecular target: T3, Human UII receptor, 6D9 human rhabdomyosarcoma cells (Homo sapiens, UniProt Q9UKP6); experiment: Human UII Calcium Mobilization Assay; assay type: cell-based; conditions: average value, FLIPR TETRA, read-out: Human UII Ca^+ Mobilization Average IC50
# T3 construct: 6D9: isolated by dilution subcloning of RMS13 cells, ATCC® Number: CRL-2061; host or cells: 6D9 human rhabdomyosarcoma cells (subclone of RMS13)
# T3 sequence (Q9UKP6 1-389): T2 sequence (Q9UKP6 1-389)
# Procedure, shortened: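 6D9 rhabdomyosarcoma cells loaded 45 min at 37° C with calcium dye (1.25 mM probenecid, 0.01% FBS, HBSS/20 mM HEPES). Antagonist and U-II agonist added at room temperature; FLIPR fluorescence read over 4 min; EC50/IC50 fitted. DMSO ≤0.1% final.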
# [4] = read-out: Human UII Average Binding Ki, average value, (^125I)-U-II binding to human skeletal muscle myoblasts (HSMM), 25° C., 3 h
IC50 [1] [nM],Ki [2] [nM],IC50 [3] [nM],Structure (SMILES),"Ki [2, 4] [nM]"
9.8,23,1000,"COc1ccc([C@@H](CCCNC(=O)C(C)(C)C)N2C(=O)c3cccc(N4CCN([C@H](C)c5ccccc5)CC4)c3C2=O)cc1OC [Cpd 185, (R)-N-(4-(3,4-dimethoxy-phenyl)-4-{1,3-dioxo-4-[4-(1R)-(1-phenyl-ethyl)-piperazin-1-yl]-1,3-dihydro-isoindol-2-yl}-butyl)-2,2-dimethyl-propionamide]",
13,37,820,"COc1ccc([C@@H](CCCNC(=O)c2ccoc2)N2C(=O)c3cccc(N4CCN([C@H](C)c5ccccc5)CC4)c3C2=O)cc1OC [Cpd 186, (R)-furan-3-carboxylic acid (4-(3,4-dimethoxy-phenyl)-4-{1,3-dioxo-4-[4-(1R)-(1-phenyl-ethyl)-piperazin-1-yl]-1,3-dihydro-isoindol-2-yl}-butyl)-amide]",
11,50,910,"COc1ccc([C@@H](CCCNC(=O)c2ccno2)N2C(=O)c3cccc(N4CCN([C@H](C)c5ccccc5)CC4)c3C2=O)cc1OC [Cpd 187, (R)-isoxazole-5-carboxylic acid (4-(3,4-dimethoxy-phenyl)-4-{1,3-dioxo-4-[4-(1R)-(1-phenyl-ethyl)-piperazin-1-yl]-1,3-dihydro-isoindol-2-yl}-butyl)-amide]",
20,120,1300,"COc1ccc([C@@H](CCCNC(=O)c2cc(C)[nH]c2C)N2C(=O)c3cccc(N4CCN([C@H](C)c5ccccc5)CC4)c3C2=O)cc1OC [Cpd 188, (R)-2,5-dimethyl-1H-pyrrole-3-carboxylic acid (4-(3,4-dimethoxy-phenyl)-4-{1,3-dioxo-4-[4-(1R)-(1-phenyl-ethyl)-piperazin-1-yl]-1,3-dihydro-isoindol-2-yl}-butyl)-amide]",
8.6,57,1100,"CCOCCC(=O)NCCC[C@H](c1ccc(OC)c(OC)c1)N1C(=O)c2cccc(N3CCN([C@H](C)c4ccccc4)CC3)c2C1=O [Cpd 189, (R)-N-(4-(3,4-dimethoxy-phenyl)-4-{1,3-dioxo-4-[4-(1R)-(1-phenyl-ethyl)-piperazin-1-yl]-1,3-dihydro-isoindol-2-yl}-butyl)-3-ethoxy-propionamide]",
6.1,20,290,"COc1ccc([C@@H](CCCNC(=O)c2cn[nH]c2)N2C(=O)c3cccc(N4CCN([C@H](C)c5ccccc5)CC4)c3C2=O)cc1OC [Cpd 190, (R)-1H-pyrazole-4-carboxylic acid (4-(3,4-dimethoxy-phenyl)-4-{1,3-dioxo-4-[4-(1R)-(1-phenyl-ethyl)-piperazin-1-yl]-1,3-dihydro-isoindol-2-yl}-butyl)-amide]",
31,69,1500,"COc1ccc([C@@H](CCCNC(=O)[C@@H]2CCCN2C)N2C(=O)c3cccc(N4CCN([C@H](C)c5ccccc5)CC4)c3C2=O)cc1OC [Cpd 191, (S)-1-methyl-pyrrolidine-2-carboxylic acid (R)-(4-(3,4-dimethoxy-phenyl)-4-{1,3-dioxo-4-[4-(1R)-(1-phenyl-ethyl)-piperazin-1-yl]-1,3-dihydro-isoindol-2-yl}-butyl)-amide]",
7,30,640,"COc1ccc([C@@H](CCCNS(=O)(=O)c2cccs2)N2C(=O)c3cccc(N4CCN(C5CCC5)CC4)c3C2=O)cc1OC [Cpd 192, (R)-thiophene-2-sulfonic acid [4-[4-(4-cyclobutyl-piperazin-1-yl)-1,3-dioxo-1,3-dihydro-isoindol-2-yl]-4-(3,4-dimethoxy-phenyl)-butyl]-amide]",
7.9,86,520,"COc1ccc([C@@H](CCCNS(=O)(=O)c2cccs2)N2C(=O)c3cccc(N4CCN(C5CCCC5)CC4)c3C2=O)cc1OC [Cpd 193, (R)-thiophene-2-sulfonic acid [4-[4-(4-cyclopentyl-piperazin-1-yl)-1,3-dioxo-1,3-dihydro-isoindol-2-yl]-4-(3,4-dimethoxy-phenyl)-butyl]-amide]",
10,170,990,"C=CCN1CCN(c2cccc3c2C(=O)N([C@H](CCCNS(=O)(=O)c2cccs2)c2ccc(OC)c(OC)c2)C3=O)CC1 [Cpd 194, (R)-thiophene-2-sulfonic acid [4-[4-(4-allyl-piperazin-1-yl)-1,3-dioxo-1,3-dihydro-isoindol-2-yl]-4-(3,4-dimethoxy-phenyl)-butyl]-amide]",
22,380,1200,"COc1ccc([C@@H](CCCNS(=O)(=O)c2cccs2)N2C(=O)c3cccc(N4CCN(C5CCCCC5)CC4)c3C2=O)cc1OC [Cpd 196, (R)-thiophene-2-sulfonic acid [4-[4-(4-cyclohexyl-piperazin-1-yl)-1,3-dioxo-1,3-dihydro-isoindol-2-yl]-4-(3,4-dimethoxy-phenyl)-butyl]-amide]",
82,220,540,"CCN1CCN(c2cccc3c2C(=O)N([C@H](CCCNC(=O)OC(C)(C)C)c2ccc(OC)c(OC)c2)C3=O)CC1 [Cpd 197, (R)-{4-(3,4-dimethoxy-phenyl)-4-[4-(4-ethyl-piperazin-1-yl)-1,3-dioxo-1,3-dihydro-isoindol-2-yl]-butyl}-carbamic acid tert-butyl ester]",
9.3,27,160,"COc1ccc([C@@H](CCCNC(=O)C(C#N)C(C)=O)N2C(=O)c3cccc(N4CCN([C@H](C)c5ccccc5)CC4)c3C2=O)cc1OC (stereo partly drawn) [Cpd 199, (R)-2-cyano-N-(4-(3,4-dimethoxy-phenyl)-4-{1,3-dioxo-4-[4-(1R)-(1-phenyl-ethyl)-piperazin-1-yl]-1,3-dihydro-isoindol-2-yl}-butyl)-3-oxo-butyramide]",
49,210,> 3000,"CCN1CCN(c2cccc3c2C(=O)N([C@H](CCCOCc2ccccc2)c2ccc(OC)c(OC)c2)C3=O)CC1 [Cpd 201, (R)-2-[4-benzyloxy-1-(3,4-dimethoxy-phenyl)-butyl]-4-(4-ethyl-piperazin-1-yl)-isoindole-1,3-dione]",
120,150,960,"CCN1CCN(c2cccc3c2C(=O)N([C@H](CCCNC(=O)C2CCC2)c2ccc(OC)c(OC)c2)C3=O)CC1 [Cpd 202, (R)-cyclobutanecarboxylic acid {4-(3,4-dimethoxy-phenyl)-4-[4-(4-ethyl-piperazin-1-yl)-1,3-dioxo-1,3-dihydro-isoindol-2-yl]-butyl}-amide]",
690,66,680,"CCN1CCN(c2cccc3c2C(=O)N([C@H](CCCO)c2ccc(OC)c(OC)c2)C3=O)CC1 [Cpd 206, (R)-2-[1-(3,4-dimethoxy-phenyl)-4-hydroxy-butyl]-4-(4-ethyl-piperazin-1-yl)-isoindole-1,3-dione]",
200,> 300,1400,"CCOCCC[C@H](c1ccc(OC)c(OC)c1)N1C(=O)c2cccc(N3CCN(CC)CC3)c2C1=O [Cpd 207, (R)-2-[1-(3,4-dimethoxy-phenyl)-4-ethoxy-butyl]-4-(4-ethyl-piperazin-1-yl)-isoindole-1,3-dione]",

Structure (SMILES),IC50 [1] [nM],Ki [2] [nM],IC50 [3] [nM],"Ki [2, 4] [nM]"
"COc1ccc([C@@H](CCCNS(=O)(=O)c2cccs2)N2C(=O)c3cccc(N4CCN(C(C)C)CC4)c3C2=O)cc1OC [Cpd 198, (R)-thiophene-2-sulfonic acid {4-(3,4-dimethoxy-phenyl)-4-[4-(4-isopropyl-piperazin-1-yl)-1,3-dioxo-1,3-dihydro-isoindol-2-yl]-butyl}-amide]",3.5,,150,45
"CCN1CCN(c2cccc3c2C(=O)N([C@H](CCCNS(=O)(=O)c2cn(C)c(C)n2)c2ccc(OC)c(OC)c2)C3=O)CC1 [Cpd 203, (R)-1,2-dimethyl-1H-imidazole-4-sulfonic acid {4-(3,4-dimethoxy-phenyl)-4-[4-(4-ethyl-piperazin-1-yl)-1,3-dioxo-1,3-dihydro-isoindol-2-yl]-butyl}-amide]",140,,810,97
